# Source: patent US10829796B2, “Bacteria identification and antimicrobial susceptibility test” (priority 2015, dated 2020)
# Tested on: bacteria in clinical bovine mastitis milk samples
# Assay: Combined bacteria identification and antimicrobial susceptibility test (colour of wells, MIC) on clinical bovine mastitis milk samples
# Format: cell-based
# Procedure: Clinical bovine mastitis milk samples were collected by a vet clinic in South Island, New Zealand. Samples were stored in the freezer for several months and shipped frozen to the testing facility. In this Example, the term “clinical” means that dairy cows had clinical symptoms of an udder infection e.g. cow behaved unusual, milk clots, swollen udder among other typical symptoms. Testing was executed in microwell plate comprising of 24 wells (3×8 wells).
# In addition, 20 ul of clinical mastitis sample was added to each well with a laboratory pipette.
# Abbreviations • 1. 80 ul GC+10 ul Tell: 80 ul Giolitti Cantoni base broth+10 ul Tellurite solution (1%); • 2. 80 ul TSB/Esc/Fer Cit: 80 ul Tryptic soy broth containing 0.25% Esculin and 0.125% Ammonium Ferric Citrate; • 3. 80 ul TSB/Esc/Fer Cit+10 ul Genta: 80 ul Tryptic soy broth containing 0.25% Esculin and 0.125% Ammonium Ferric Citrate+10 ul of Gentamycin solution 10 mg/ml; • 4. 80 ul McC/PR25: 80 ul MacConkey broth (single strength) containing 0.0125% phenol red; and • 5. 80 ul TSB/PR25: 80 ul Tryptic soy broth containing 0.0125% phenol red. Bacteria Identification
# Columns A to C and rows 1 and 2 were used for bacteria identification. A1: coagulase positive Staph; A2: Staphylococci; B1: Strep group D; B2: Strep group D; C1: general enrichment media (gram+ and gram-bacteria); C2: coliform bacteria.
# Column A3 to A8: serial dilution of benzyl penicillin as potassium. Column B3 to B8: serial dilution of ceftiofur as hydrochloride. Column C3 to C8: serial dilution of cloxacillin as sodium. Antibiotic concentrations are listed as free form ranging between 4 ug/ml to 0.05 ug/ml.
# Minimum inhibitory substance concentration (MIC) is here defined as the concentration if a colour change occurs between two wells (one well remains red with drug concentration 1, the other one yellow with drug concentration 2, whereas drug concentration 1 is larger than drug concentration 2) then the MIC is the value of drug concentration 1.
# Table 21 indicates the microwell plate configuration #1; Drugs: Benzylpenicillin as potassium; Cloxacillin as sodium; Ceftiofur as hydrochloride; Drug concentration in each well (A3 to C8) is based on 80 μl composition+10 μl drug solution+20 μl clinical mastitis milk sample and equivalent to listed drug concentration in μg/ml; 20 ul of clinical bovine mastitis milk sample was added to each well (A1 to C8).
# In addition, each well received one drop of clinical sample from a transfer pipette which was on average about 35 mg. This was determined through weighing the well plate prior and after the addition of clinical mastitis samples. This weight was then divided by 24.
# • 1. 80 ul GC+10 ul Tell: 80 ul Giolitti Cantoni base broth+10 ul Tellurite solution (1%); • 2. 80 ul TSB/Esc/Fer Cit: 80 ul Tryptic soy broth containing 0.25% Esculin and 0.125% Ammonium Ferric Citrate; • 3. 80 ul TSB/Esc/Fer Cit+10 ul Genta: 80 ul Tryptic soy broth containing 0.25% Esculin and 0.125% Ammonium Ferric Citrate+10 ul of Gentamycin solution 10 mg/ml; • 4. 80 ul McC/PR25: 80 ul MacConkey broth (single strength) containing 0.0125% phenol red; and • 5. 80 ul TSB/PR25: 80 ul Tryptic soy broth containing 0.0125% phenol red.
# Columns A to C and rows 1 and 2 were used for bacteria identification. A1: coagulase positive Staph; A2: Staphylococci; B1: Strep Group D; B2: -; C1: general enrichment media (gram+ and gram-); C2: coliform bacteria.
# Column A3 to A8: serial dilution of benzyl penicillin as potassium. Drug concentrations given as free form ranging between 4 ug/ml to 0.05 ug/ml. Column B3 to B8: serial dilution of ceftiofur as hydrochloride. Drug concentrations given as free form ranging between 4 ug/ml to 0.05 ug/ml. Column C3 to C8: serial dilution of cloxacillin as sodium. Drug concentrations given as free form ranging between 4 ug/ml to 0.05 ug/ml.
smiles,measurement,setting,value
CO/N=C(\C(=O)N[C@@H]1C(=O)N2C(C(=O)O)=C(CSC(=O)c3ccco3)CS[C@H]12)c1csc(N)n1 [ceftiofur],Colour of media in each well,"ID 5 to 8, T = 0 h (prior incubation, reference), plate configuration #2, drug 2 μg/ml",red
same,Colour of media in each well,"ID 5 to 8, T = 0 h (prior incubation, reference), plate configuration #2, drug 4 μg/ml",red
same,Colour of media in each well,"ID 6, T = 23h, 37° C., plate configuration #2, drug 0.05 μg/ml (Table 31)",yellow
same,Colour of media in each well,"ID 6, T = 23h, 37° C., plate configuration #2, drug 0.1 μg/ml (Table 31)",yellow
same,Colour of media in each well,"ID 6, T = 23h, 37° C., plate configuration #2, drug 0.5 μg/ml (Table 31)",yellow
same,Colour of media in each well,"ID 6, T = 23h, 37° C., plate configuration #2, drug 1 μg/ml (Table 31)",yellow
same,Colour of media in each well,"ID 6, T = 23h, 37° C., plate configuration #2, drug 2 μg/ml (Table 31)",red
same,Colour of media in each well,"ID 6, T = 23h, 37° C., plate configuration #2, drug 4 μg/ml (Table 31)",red
same,Colour of media in each well,"ID 6, T~7 h, 37° C., plate configuration #2, Table 35, drug 0.05 μg/ml",yellow
same,Colour of media in each well,"ID 6, T~7 h, 37° C., plate configuration #2, Table 35, drug 0.1 μg/ml",yellow
same,Colour of media in each well,"ID 6, T~7 h, 37° C., plate configuration #2, Table 35, drug 0.5 μg/ml",yellow
same,Colour of media in each well,"ID 6, T~7 h, 37° C., plate configuration #2, Table 35, drug 1 μg/ml",red
same,Colour of media in each well,"ID 6, T~7 h, 37° C., plate configuration #2, Table 35, drug 2 μg/ml",red
same,Colour of media in each well,"ID 6, T~7 h, 37° C., plate configuration #2, Table 35, drug 4 μg/ml",red
same,Colour of media in each well,"ID 6, T~11 h, 37° C., plate configuration #2, Table 35, drug 0.05 μg/ml",yellow
same,Colour of media in each well,"ID 6, T~11 h, 37° C., plate configuration #2, Table 35, drug 0.1 μg/ml",yellow
same,Colour of media in each well,"ID 6, T~11 h, 37° C., plate configuration #2, Table 35, drug 0.5 μg/ml",yellow
same,Colour of media in each well,"ID 6, T~11 h, 37° C., plate configuration #2, Table 35, drug 1 μg/ml",red
same,Colour of media in each well,"ID 6, T~11 h, 37° C., plate configuration #2, Table 35, drug 2 μg/ml",red
same,Colour of media in each well,"ID 6, T~11 h, 37° C., plate configuration #2, Table 35, drug 4 μg/ml",red
same,Colour of media in each well,"ID 6, T~23 h, 37° C., plate configuration #2, Table 35, drug 0.05 μg/ml",yellow
same,Colour of media in each well,"ID 6, T~23 h, 37° C., plate configuration #2, Table 35, drug 0.1 μg/ml",yellow
same,Colour of media in each well,"ID 6, T~23 h, 37° C., plate configuration #2, Table 35, drug 0.5 μg/ml",yellow
same,Colour of media in each well,"ID 6, T~23 h, 37° C., plate configuration #2, Table 35, drug 1 μg/ml",yellow
same,Colour of media in each well,"ID 6, T~23 h, 37° C., plate configuration #2, Table 35, drug 2 μg/ml",red
same,Colour of media in each well,"ID 6, T~23 h, 37° C., plate configuration #2, Table 35, drug 4 μg/ml",red
same,Colour of media in each well,"ID 7, T = 23h, 37° C., plate configuration #2, drug 0.05 μg/ml",yellow
same,Colour of media in each well,"ID 7, T = 23h, 37° C., plate configuration #2, drug 0.1 μg/ml",yellow
same,Colour of media in each well,"ID 7, T = 23h, 37° C., plate configuration #2, drug 0.5 μg/ml",yellow
same,Colour of media in each well,"ID 7, T = 23h, 37° C., plate configuration #2, drug 1 μg/ml",red
same,Colour of media in each well,"ID 7, T = 23h, 37° C., plate configuration #2, drug 2 μg/ml",red
same,Colour of media in each well,"ID 7, T = 23h, 37° C., plate configuration #2, drug 4 μg/ml",red
same,Colour of media in each well,"ID 8, T = 23 h, 37° C., plate configuration #2, drug 0.05 μg/ml",yellow
same,Colour of media in each well,"ID 8, T = 23 h, 37° C., plate configuration #2, drug 0.1 μg/ml",yellow
same,Colour of media in each well,"ID 8, T = 23 h, 37° C., plate configuration #2, drug 0.5 μg/ml",red
same,Colour of media in each well,"ID 8, T = 23 h, 37° C., plate configuration #2, drug 1 μg/ml",red
same,Colour of media in each well,"ID 8, T = 23 h, 37° C., plate configuration #2, drug 2 μg/ml",red
same,Colour of media in each well,"ID 8, T = 23 h, 37° C., plate configuration #2, drug 4 μg/ml",red
same,Colour of media in each well,"Table 24, sample ID 2, 22 hours at 37° C., plate configuration #1, row 3 of serial dilution 4 ug/ml to 0.05 ug/ml",red
same,Colour of media in each well,"Table 24, sample ID 2, 22 hours at 37° C., plate configuration #1, row 4 of serial dilution 4 ug/ml to 0.05 ug/ml",red
same,Colour of media in each well,"Table 24, sample ID 2, 22 hours at 37° C., plate configuration #1, row 5 of serial dilution 4 ug/ml to 0.05 ug/ml",red
same,Colour of media in each well,"Table 24, sample ID 2, 22 hours at 37° C., plate configuration #1, row 6 of serial dilution 4 ug/ml to 0.05 ug/ml",orange
same,Colour of media in each well,"Table 24, sample ID 2, 22 hours at 37° C., plate configuration #1, row 7 of serial dilution 4 ug/ml to 0.05 ug/ml",yellow
same,Colour of media in each well,"Table 24, sample ID 2, 22 hours at 37° C., plate configuration #1, row 8 of serial dilution 4 ug/ml to 0.05 ug/ml",yellow
same,MIC,"clinical sample ID 1 (streptococci group D), 37° C. for 22 hours, plate configuration #1",0.5 µg/mL
same,MIC,"clinical sample ID 2 (streptococci group D, also coagulase positive Staph), 37° C. for 22 hours, plate configuration #1",1 µg/mL
same,MIC,"clinical sample ID 3 (coliform bacteria), 37° C. for 22 hours, plate configuration #1",1 µg/mL
same,MIC,"clinical sample ID 4 (coagulase positive Staph), 37° C. for 22 hours, plate configuration #1",1 µg/mL
same,MIC,"clinical sample ID 5 (streptococci group D), 37° C. for 23 hours, plate configuration #2",0.5 µg/mL
same,MIC,"clinical sample ID 6 (coliform bacteria), 37° C. for 23 hours, plate configuration #2",2 µg/mL
same,MIC,"clinical sample ID 7 (coagulase positive Staph), 37° C. for 23 hours, plate configuration #2",1 µg/mL
same,MIC,"clinical sample ID 8 (coagulase negative Staph and Streptococci group D), 37° C. for 23 hours, plate configuration #2",0.5 µg/mL
